Our source for the IC50 values is BindingDB's records for doi:10.1016/j.ejmech.2016.09.002 (King Fahd University of Petroleum and Minerals, 2016).

Assay [1] is described as follows: Inhibition of recombinant GGT1 (unknown origin) using GGPP as substrate preincubated for 5 mins followed by protein addition measured over 20 mins by fluorescence assay.
Assay in assay [2]: as above
The source holds these as a separate data set.

The structures appear in SMILES notation.

For orientation: IC50 means the point on the concentration scale where inhibition reaches its midpoint. For `COc1ccc(C[C@H](NS(C)(=O)=O)C(=O)NCCCOc2c(CCSC)c(-c3cccnc3)nn2-c2ccc(Cl)c(Cl)c2)cc1`, the IC50 in assay [1] was found to be 9.9 µM. Consider `CSCCc1c(-c2cccnc2)nn(-c2ccc(Cl)c(Cl)c2)c1OCCCC(=O)N[C@@H](Cc1cccnc1)C(N)=O`, for which the IC50 in assay [1] was found to be 11.6 µM.

For the molecule `CSCCc1c(-c2cccnc2)nn(-c2ccc(Cl)c(Cl)c2)c1OCCCNC(=O)[C@H](Cc1cccnc1)NC(C)=O`, the IC50 in assay [1] is over 50 µM. For the molecule `CSCCc1c(-c2cccnc2)nn(-c2ccc(Cl)c(Cl)c2)c1OCCCC(=O)N[C@@H](Cc1ccc(F)cc1)C(N)=O`, in assay [1], the IC50 came out at 2.4 µM.

Consider `COc1ccc(C[C@H](NC(C)=O)C(=O)NCCCOc2c(CCSC)c(-c3cccnc3)nn2-c2ccc(Cl)c(Cl)c2)cc1`, for which the IC50 in assay [1] turned out to be 34.8 µM. On to `CSCCc1c(-c2cccnc2)nn(-c2ccc(Cl)c(Cl)c2)c1OCCCC(=O)N[C@@H](Cc1ccncc1)C(N)=O`, for which the IC50 in assay [1] is 7.8 µM.

In the case of `CSCCc1c(-c2cccnc2)nn(-c2ccc(Cl)c(Cl)c2)c1OCCCNC(=O)[C@H](Cc1ccccc1)NC(C)=O`, in assay [2], the IC50 worked out at 22.9 µM. On to `CSCCc1c(-c2cccnc2)nn(-c2ccc(Cl)c(Cl)c2)c1OCCCNC(=O)[C@H](Cc1cccnc1)NS(C)(=O)=O`, for which the IC50 in assay [1] was over 50 µM. In the case of `CSCCc1c(-c2cccnc2)nn(-c2ccc(Cl)c(Cl)c2)c1OCCCNC(=O)[C@H](Cc1ccc(F)cc1)NS(C)(=O)=O`, the IC50 in assay [1] worked out at 19.7 µM. Same read-out and setting: the same measure for `CSCCc1c(-c2cccnc2)nn(-c2ccc(Cl)c(Cl)c2)c1OCCCNC(=O)[C@H](Cc1ccccc1)NS(C)(=O)=O`: 31.9 µM; for `COc1ccc(C[C@H](NC(=O)CCCOc2c(CCSC)c(-c3cccnc3)nn2-c2ccc(Cl)c(Cl)c2)C(N)=O)cc1`: 3.1 µM. The same measure, in the same setting: the same measure for `CSCCc1c(-c2cccnc2)nn(-c2ccc(Cl)c(Cl)c2)c1OCCCC(=O)N[C@@H](Cc1ccccc1)C(N)=O` [N-[(S)-1-carbamoyl-2-phenylethyl]-4-[2-(3,4-di-chlorophenyl)-4-(2-methylsulfanylethyl)-5-pyridin-3-yl-2-H-pyrazol-3-yloxy]butyramide]: 3.3 µM.
